“And” between values parts separate entries of the source, which are not always exact repeats. Identical values can stand only once.

In one assay the target is T1, c-Met (Homo sapiens, UniProt P08581).
T1 construct: purchased Millipore
In words: ELISA kinase assay, c-Met. Format: biochemical. As for the experimental part: (§1) The effects of compounds on the activities of indicated (FGFR1 and c-Met) kinases were determined using enzyme-linked immunosorbent assays (ELISAs) with purified recombinant proteins. Briefly, 20 μg/mL poly (Glu, Tyr)4:1 (Sigma, St. Louis, MO, USA) was pre-coated in 96-well plates as a substrate. A 50-μL aliquot of 10 μmol/L ATP solution diluted in kinase reaction buffer (50 mmol/L HEPES (pH 7.4), 50 mmol/L MgCl2, 0.5 mmol/L MnCl2, 0.2 mmol/L Na3VO4, and 1 mmol/L DTT) was added to each well; 1 μL of various concentrations of compounds diluted in 1% DMSO (v/v) (Sigma) were then added to each reaction well. DMSO (1%, v/v) was used as the negative control. The kinase reaction was initiated by the addition of purified tyrosine kinase proteins FGFR1 (Millipore, Darmstadt, Germany) or c-Met (Millipore) diluted in 49 μL of kinase reaction buffer. After incubation for 60 min at 37 °C, the plate was washed three times with phosphate-buffered saline (PBS) containing 0.1% Tween 20 (T-PBS). Anti-phosphotyrosine (PY99) antibody (Sanra Cruz, Dallas, USA) (100 μL; 1:500, diluted in 5 mg/mL bovine serum albumin (BSA) T-PBS) was then added. After a 30-min incubation at 37 °C, the plate was washed three times, and 100 μL horseradish peroxidase-conjugated goat anti-mouse IgG (Calbiochem, Shanghai, China) (1:2000, diluted in 5 mg/mL BSA T-PBS) was added. The plate was then incubated at 37°C for 30 min and washed 3 times. A 100-μL aliquot of a solution containing 0.03% H2O2 and 2 mg/mL o-phenylenediamine in 0.1 mol/L citrate buffer (pH 5.5) was added. The reaction was terminated by the addition of 50 μL of 2 mol/L H2SO4 as the color changed, and the plate was analyzed using a multi-well spectrophotometer (SpectraMAX 190, Molecular Devices, Palo Alto, CA, USA) at 490 nm. […] (1) where IR, A490 and A490control are the inhibition rate, the absorbance value of the tested compound at 490 nm and the absorbance value of the negative control compound at 490 nm, respectively. The IC50 values were calculated from the inhibition curves in two separate experiments.

In a further assay the target is T2, FGFR1 (Homo sapiens, UniProt P11362).
T2 construct: purchased Millipore
In words: ELISA kinase assay, FGFR1. The class given is biochemical. Here is the method:
as §1
Background: In an ELISA, binding on a coated surface is turned into a signal by an enzyme label.

T1 sequence (P08581 25-1390): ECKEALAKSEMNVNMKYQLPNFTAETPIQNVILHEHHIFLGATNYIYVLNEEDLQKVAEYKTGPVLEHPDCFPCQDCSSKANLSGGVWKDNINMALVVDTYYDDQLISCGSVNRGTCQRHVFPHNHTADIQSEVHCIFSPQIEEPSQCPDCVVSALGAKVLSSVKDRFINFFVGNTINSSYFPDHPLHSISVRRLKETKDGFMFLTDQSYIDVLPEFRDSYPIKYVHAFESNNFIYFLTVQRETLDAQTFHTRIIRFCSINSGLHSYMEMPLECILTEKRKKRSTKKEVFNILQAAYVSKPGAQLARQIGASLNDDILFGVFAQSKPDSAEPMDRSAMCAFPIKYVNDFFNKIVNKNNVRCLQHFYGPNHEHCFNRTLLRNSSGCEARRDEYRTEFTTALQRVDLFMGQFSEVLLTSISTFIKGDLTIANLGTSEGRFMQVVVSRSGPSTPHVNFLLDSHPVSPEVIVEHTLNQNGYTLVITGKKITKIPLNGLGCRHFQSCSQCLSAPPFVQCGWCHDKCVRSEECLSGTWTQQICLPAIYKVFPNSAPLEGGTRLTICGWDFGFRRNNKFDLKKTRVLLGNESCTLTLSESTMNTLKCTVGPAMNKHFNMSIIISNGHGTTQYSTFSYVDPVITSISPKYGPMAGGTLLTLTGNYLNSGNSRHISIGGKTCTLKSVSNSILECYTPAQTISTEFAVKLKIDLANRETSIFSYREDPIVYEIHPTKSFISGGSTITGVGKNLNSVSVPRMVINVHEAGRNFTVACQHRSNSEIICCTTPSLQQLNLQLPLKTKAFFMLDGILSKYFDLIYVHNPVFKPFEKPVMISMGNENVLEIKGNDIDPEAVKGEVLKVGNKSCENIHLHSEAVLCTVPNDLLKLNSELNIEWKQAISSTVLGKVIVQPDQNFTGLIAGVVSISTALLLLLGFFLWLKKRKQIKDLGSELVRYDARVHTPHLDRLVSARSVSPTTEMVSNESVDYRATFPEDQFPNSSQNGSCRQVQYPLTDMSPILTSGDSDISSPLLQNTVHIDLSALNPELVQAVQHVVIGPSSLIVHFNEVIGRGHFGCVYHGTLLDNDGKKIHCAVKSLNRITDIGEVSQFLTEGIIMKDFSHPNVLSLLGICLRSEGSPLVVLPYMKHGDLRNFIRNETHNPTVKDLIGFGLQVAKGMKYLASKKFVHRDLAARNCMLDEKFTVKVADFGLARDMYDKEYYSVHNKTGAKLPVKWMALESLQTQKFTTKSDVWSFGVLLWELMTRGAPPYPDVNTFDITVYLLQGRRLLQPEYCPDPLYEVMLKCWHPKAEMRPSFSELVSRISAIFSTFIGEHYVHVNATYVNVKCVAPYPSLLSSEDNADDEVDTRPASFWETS
T2 sequence (P11362 22-822): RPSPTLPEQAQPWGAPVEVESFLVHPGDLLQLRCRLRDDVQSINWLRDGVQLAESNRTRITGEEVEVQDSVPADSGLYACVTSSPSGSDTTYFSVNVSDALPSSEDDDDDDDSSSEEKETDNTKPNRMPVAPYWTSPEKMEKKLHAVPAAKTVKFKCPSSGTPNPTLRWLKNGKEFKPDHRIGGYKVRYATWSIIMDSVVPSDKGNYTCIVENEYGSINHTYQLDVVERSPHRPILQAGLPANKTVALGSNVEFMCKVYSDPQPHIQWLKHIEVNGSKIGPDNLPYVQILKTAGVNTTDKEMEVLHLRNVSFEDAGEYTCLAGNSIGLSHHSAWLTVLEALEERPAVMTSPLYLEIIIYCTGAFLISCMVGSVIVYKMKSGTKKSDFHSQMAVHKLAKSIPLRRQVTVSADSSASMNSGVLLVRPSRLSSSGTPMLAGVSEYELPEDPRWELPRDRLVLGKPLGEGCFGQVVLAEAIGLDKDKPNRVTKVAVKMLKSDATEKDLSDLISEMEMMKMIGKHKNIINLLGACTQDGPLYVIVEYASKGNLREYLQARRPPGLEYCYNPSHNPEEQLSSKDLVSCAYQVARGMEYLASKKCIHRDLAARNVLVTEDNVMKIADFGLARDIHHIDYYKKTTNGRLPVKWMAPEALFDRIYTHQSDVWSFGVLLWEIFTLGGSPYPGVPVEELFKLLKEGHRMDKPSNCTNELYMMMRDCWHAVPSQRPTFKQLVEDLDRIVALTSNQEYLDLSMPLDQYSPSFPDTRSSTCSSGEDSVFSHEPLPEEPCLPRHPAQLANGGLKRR

As for `O=[N+]([O-])c1cccc(S(=O)(=O)n2ccc3ncc(-c4ccc(CO)cc4)nc32)c1` [Compound 27, (4-(5-((3-Nitrophenyl)sulfonyl)-5H-pyrrolo[2,3-b]pyrazin-3-yl)phenyl)methanol], testing at 0.01 µM on c-Met (0.01 μM compound) gave an inhibition of 1.1%. In addition, the inhibition – broadly, how much of the control response was suppressed – at 0.1 µM was 8.4% against c-Met (0.1 μM compound) and 52.2% at FGFR1 (0.1 μM compound). Moreover, the inhibition at 1 µM at c-Met (1 μM compound) came out at 30.1%; against FGFR1 (1 μM compound), 75.5%. Also, the half-inhibitory concentration (IC50) (usually the concentration that gives 50% inhibition) against FGFR1 (mean ± SD from two separate experiments) was 113 nM and 114 nM.

The values are drawn from article PMC6154558, “Discovery and Biological Evaluation of a Series of Pyrrolo[2,3-b]pyrazines as Novel FGFR Inhibitors” (Molecules : A Journal of Synthetic Chemistry and Natural …, 2017).
